From patent US20240425478A1, “CYCLOPENTYLPYRAZOLE CDK2 INHIBITORS” (Genentech, Inc., priority 2021, published 2024)
Read-outs that look alike come from different tables or passages of the source.

Assays:
SKOV-3 (ATCC HTB-77) = assay: SKOV-3 EdU incorporation cell proliferation assay (CDK4/6-dependent); format: cell-based; conditions: for IC50: Homo sapiens, SK-OV-3, Table O, cellular assay, read-out: CDK4/6 SKOV-3 IC50; for FS SKOV-3/OVISE: fold selectivity, cellular IC50 ratio
How it was run: (§1)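 Cells in RPMI/10% FBS dosed with compound (0.5% DMSO final) for 16 h at 37 °C, 5% CO2, then EdU 0.5 μM final for 8 h before fixation and imaging. IC50 from 4-parameter logistic fit of EdU-positive cell fraction versus dose.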

[1] = test system: OVISE (JCRB1043, CCNE1-amplified); assay: OVISE EdU incorporation cell proliferation assay (CDK2-dependent); format: cell-based; conditions: for IC50 / FS SKOV-3/OVISE: Table O; for IC50: cellular assay, read-out: CDK2 OVISE IC50; for FS SKOV-3/OVISE: fold selectivity, cellular SKOV-3 IC50 over OVISE IC50
How it was run: as §1

[2] = molecular target: T1, Cyclin Dependent Kinase 2/Cyclin E1 (CDK2-cycE1) (Homo sapiens, UniProt P24941); assay: CDK2-cycE1 TR-FRET (LANCE) enzyme assay; format: biochemical; conditions: for Ki: enzymatic assay, read-out: CDK2 Ki; for FS CDK1/CDK2 / FS CDK4/CDK2: fold selectivity; for FS CDK1/CDK2: enzymatic CDK1 Ki over CDK2 Ki; for FS CDK4/CDK2: enzymatic CDK4 Ki over CDK2 Ki
T1 construct: purchased ProQinase 0050-0055-1
How it was run: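 Compound dose responses pre-incubated 30 min with CDK2-cycE1 in 50 mM HEPES pH 7.5, 10 mM MgCl2, 2 mM TCEP, 0.05% BGG, 0.01% Brij 35. Reaction quenched with EDTA (15 mM final), phospho-MBP detected by Eu-anti-phospho-MBP TR-FRET (acceptor/donor ratio). Inhibition constants from Morrison equation.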

[3] = molecular target: T2, Cyclin Dependent Kinase 1/Cyclin A2 (CDK1-cycA2) (Homo sapiens, UniProt P06493); assay: CDK1-cycA2 TR-FRET (Lance) enzyme assay; format: biochemical; conditions: for Ki: Table O, enzymatic assay; for FS CDK1/CDK2: fold selectivity, enzymatic Ki ratio
T2 construct: purchased ProQinase 0134-0054-1
T2 sequence (P06493 whole entry): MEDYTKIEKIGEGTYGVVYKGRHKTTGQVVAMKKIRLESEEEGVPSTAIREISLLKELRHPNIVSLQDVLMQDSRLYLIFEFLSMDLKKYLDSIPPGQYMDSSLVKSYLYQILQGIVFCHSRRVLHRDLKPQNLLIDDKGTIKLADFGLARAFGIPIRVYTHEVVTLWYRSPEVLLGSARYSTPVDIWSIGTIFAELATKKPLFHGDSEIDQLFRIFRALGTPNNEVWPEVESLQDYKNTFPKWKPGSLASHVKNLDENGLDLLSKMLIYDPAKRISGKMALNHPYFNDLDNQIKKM
T2 sequence (P20248 whole entry partner): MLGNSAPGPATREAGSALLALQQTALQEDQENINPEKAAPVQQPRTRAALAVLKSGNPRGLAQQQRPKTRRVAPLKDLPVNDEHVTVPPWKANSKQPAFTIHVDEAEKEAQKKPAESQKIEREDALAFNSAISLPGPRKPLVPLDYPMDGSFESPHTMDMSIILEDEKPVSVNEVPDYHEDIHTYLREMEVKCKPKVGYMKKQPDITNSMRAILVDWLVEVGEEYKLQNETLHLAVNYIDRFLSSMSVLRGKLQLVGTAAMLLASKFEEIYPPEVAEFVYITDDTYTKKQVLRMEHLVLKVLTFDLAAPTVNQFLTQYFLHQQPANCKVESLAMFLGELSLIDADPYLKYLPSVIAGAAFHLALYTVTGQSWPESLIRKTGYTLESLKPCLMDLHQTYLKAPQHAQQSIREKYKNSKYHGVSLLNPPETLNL
How it was run: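 Human CDK1/cyclin A2 pre-incubated 30 min with compound dose responses in 50 mM HEPES pH 7.5, 10 mM MgCl2, 2 mM TCEP, 0.05% BGG, 0.01% Brij 35. Reaction quenched with EDTA (15 mM final); TR-FRET readout using Eu-anti-phospho-4E-BP1, acceptor/donor ratio. Inhibition constants from Morrison equation.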

[4] = molecular target: T3, Cyclin Dependent Kinase 4/Cyclin D3 (CDK4-cycD3) (Homo sapiens, UniProt P11802); assay: CDK4-cycD3 TR-FRET (LANCE) enzyme assay; format: biochemical; conditions: for Ki: Table O, enzymatic assay; for FS CDK4/CDK2: fold selectivity, enzymatic Ki ratio
T3 construct: purchased Carna Biosciences 04-105
T3 sequence (P11802 whole entry): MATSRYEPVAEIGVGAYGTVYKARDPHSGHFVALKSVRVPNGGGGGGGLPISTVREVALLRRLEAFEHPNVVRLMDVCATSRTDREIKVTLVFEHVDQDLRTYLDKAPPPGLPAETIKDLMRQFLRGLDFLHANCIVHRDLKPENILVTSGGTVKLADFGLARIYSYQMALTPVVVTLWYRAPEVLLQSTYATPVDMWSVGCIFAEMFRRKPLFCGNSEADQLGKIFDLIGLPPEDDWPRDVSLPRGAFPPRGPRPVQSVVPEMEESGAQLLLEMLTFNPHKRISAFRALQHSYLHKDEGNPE
T3 sequence (P30281 whole entry partner): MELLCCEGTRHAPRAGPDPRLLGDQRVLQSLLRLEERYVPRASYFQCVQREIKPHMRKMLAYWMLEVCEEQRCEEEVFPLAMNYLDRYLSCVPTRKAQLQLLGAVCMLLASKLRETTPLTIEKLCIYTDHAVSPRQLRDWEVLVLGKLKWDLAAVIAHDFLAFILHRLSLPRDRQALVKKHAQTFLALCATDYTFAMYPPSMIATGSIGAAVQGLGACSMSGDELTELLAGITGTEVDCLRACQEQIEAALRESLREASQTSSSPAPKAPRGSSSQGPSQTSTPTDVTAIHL
How it was run: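 Compound dose responses pre-incubated 30 min with enzyme mix in 50 mM HEPES pH 7.5, 10 mM MgCl2, 2 mM TCEP, 0.05% BGG, 0.01% Brij 35. Reaction quenched with EDTA (15 mM final); Eu-anti-phospho-4E-BP1 TR-FRET detection, acceptor/donor ratio. Ki derived by Morrison equation.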

IC50 (SKOV-3 (ATCC HTB-77)) | Ki ([2]; Table O) | FS CDK1/CDK2 ([2]; Table O) | FS CDK4/CDK2 ([2]; Table O) | Ki [3] | Ki [4] | Compound | IC50 [1] | FS SKOV-3/OVISE [1] | also measured
5800 nM | 11 nM | 25 | 25 | 270 nM | 280 nM | O=C(NC1(C(F)(F)F)CC1)O[C@@H]1CC[C@H](c2cc(Nc3cccnn3)n[nH]2)C1 [Example 5, (1R,3S)-3-(3-(pyridazin-3-ylamino)-1H-pyrazol-5-yl)cyclopentyl (1-(trifluoromethyl)cyclopropyl)carbamate] | 460 nM | 13 | 
> 20000 nM | 14 nM | 39 | 42 | 550 nM | 590 nM | CNC(=O)c1ccc(Nc2cc([C@H]3CC[C@@H](OC(=O)NC4(C)CC4)C3)[nH]n2)c(C)n1 [Example 7A, (1R,3S)-3-(3-((2-methyl-6-(methylcarbamoyl)pyridin-3-yl)amino)-1H-pyrazol-5-yl)cyclopentyl (1-methylcyclopropyl)carbamate] | 1400 nM | >14 | 
> 20000 nM | 300 nM | 11 | 22 | 3300 nM | 6500 nM | Cc1ncccc1Nc1cc([C@H]2CC[C@@H](OC(=O)N[C@@H]3CCN(C)C3)C2)[nH]n1 [Example 7B, (1R,3S)-3-(3-((2-methylpyridin-3-yl)amino)-1H-pyrazol-5-yl)cyclopentyl ((R)-1-methylpyrrolidin-3-yl)carbamate] | 17000 nM | >1.2 | 
> 20000 nM | 260 nM | 13 | 16 | 3500 nM | 4200 nM | Cc1ncccc1Nc1cc([C@H]2CC[C@@H](OC(=O)N[C@H]3CCN(C)C3)C2)[nH]n1 [Example 7C, (1R,3S)-3-(3-((2-methylpyridin-3-yl)amino)-1H-pyrazol-5-yl)cyclopentyl ((S)-1-methylpyrrolidin-3-yl)carbamate] | 8000 nM | >2.5 | 
> 20000 nM | 23 nM | 16 | 52 | 370 nM | 1200 nM | Cc1ncccc1Nc1cc([C@H]2CC[C@@H](OC(=O)NC3CC(O)C3)C2)[nH]n1 (stereo partly drawn) [Example 7D, (1R,3S)-3-(3-((2-methylpyridin-3-yl)amino)-1H-pyrazol-5-yl)cyclopentyl ((1s,3s)-3-hydroxycyclobutyl)carbamate] | 1600 nM | >13 | 
> 20000 nM | 12 nM | 28 | 500 | 340 nM | 6000 nM | Cc1cc(Nc2cc([C@H]3CC[C@@H](OC(=O)NC45CC(C4)C5)C3)[nH]n2)c(C)nn1 [Example 9D, (1R,3S)-3-(3-((3,6-dimethylpyridazin-4-yl)amino)-1H-pyrazol-5-yl)cyclopentyl bicyclo[1.1.1]pentan-1-ylcarbamate] | 5000 nM | >4 | 
> 20000 nM | 5 nM | 16 | 92 | 80 nM | 460 nM | CNC(=O)c1ncc(Nc2cc([C@H]3CC[C@@H](OC(=O)NC45CC(C4)C5)C3)[nH]n2)c(C)n1 [Example 9F, (1R,3S)-3-(3-((4-methyl-2-(methylcarbamoyl)pyrimidin-5-yl)amino)-1H-pyrazol-5-yl)cyclopentyl bicyclo[1.1.1]pentan-1-ylcarbamate] | 1200 nM | >17 | 
15000 nM | 12 nM | 64 | 110 | 770 nM | 1300 nM | Cc1cnccc1Nc1cc([C@H]2CC[C@@H](OC(=O)NC34CC(C3)C4)C2)[nH]n1 [Example 9G, (1R,3S)-3-(3-((3-methylpyridin-4-yl)amino)-1H-pyrazol-5-yl)cyclopentyl bicyclo[1.1.1]pentan-1-ylcarbamate] | 340 nM | 44 | 
> 20000 nM | 130 nM | 39 | 385 | 5100 nM | > 50000 nM | COc1cc(=O)n(C)cc1Nc1cc([C@H]2CC[C@@H](OC(=O)NC34CC(C3)C4)C2)[nH]n1 [Example 10, (1R,3S)-3-(3-((4-methoxy-1-methyl-6-oxo-1,6-dihydropyridin-3-yl)amino)-1H-pyrazol-5-yl)cyclopentyl bicyclo[1.1.1]pentan-1-ylcarbamate] | 16000 nM | >1.3 | 
> 20000 nM | 12 nM | 74 | 92 | 890 nM | 1100 nM | O=C(NC12CC(C1)C2)O[C@@H]1CC[C@H](c2cc(Nc3ccnnc3C3CC3)n[nH]2)C1 [Example 11, (1R,3S)-3-(3-((3-cyclopropylpyridazin-4-yl)amino)-1H-pyrazol-5-yl)cyclopentyl bicyclo[1.1.1]pentan-1-ylcarbamate] | 2600 nM | >7.7 | 

Compound | IC50 (SKOV-3 (ATCC HTB-77)) | Ki ([2]; Table O) | FS CDK1/CDK2 ([2]; Table O) | FS CDK4/CDK2 ([2]; Table O) | Ki [3] | Ki [4] | IC50 [1] | FS SKOV-3/OVISE [1] | also measured
Cc1cc(=O)n(C)nc1Nc1cc([C@H]2CC[C@@H](OC(=O)NC(C)(C)C)C2)[nH]n1 [Example 4C, (1R,3S)-3-(3-((1,4-dimethyl-6-oxo-1,6-dihydropyridazin-3-yl)amino)-1H-pyrazol-5-yl)cyclopentyl tert-butylcarbamate] | 19000 nM | 2.1 nM | 31 | 280 | 65 nM | 580 nM | 600 nM | 32 | selectivity for CDK2 over CDK4 compared with Comparator E (SKOV-3 (ATCC HTB-77); SKOV-3/OVISE fold-selectivity cellular assay data): increase in selectivity for CDK2 over CDK4; FS SKOV-3/OVISE increased over Comparator D, (+) sign (SKOV-3 (ATCC HTB-77); Table R): (+); FS SKOV-3/OVISE (SKOV-3 (ATCC HTB-77); Table R): 32; FS SKOV-3/OVISE increased over Comparator E, (+) sign (SKOV-3 (ATCC HTB-77); Table S): (+); FS SKOV-3/OVISE (SKOV-3 (ATCC HTB-77); Table S): 32; CDK2 OVISE IC50 fold change in potency versus Comparator D ([1]; Table R, in brackets after OVISE IC50): 6 fold; CDK2 OVISE IC50 fold change in potency versus Comparator E ([1]; Table S, in brackets after OVISE IC50): 0.3 fold; Ki ([2]; Table R): 2.1 nM; CDK2 Ki fold change in potency versus Comparator D ([2]; Table R, in brackets after CDK2 Ki): 1.3 fold; Ki ([2]; Table S): 2.1 nM; CDK2 Ki fold change in potency versus Comparator E ([2]; Table S, in brackets after CDK2 Ki): 0.3 fold; FS CDK1/CDK2 increased over Comparator D, (+) sign ([3]; Table R): (+); FS CDK1/CDK2 ([3]; Table R): 31; FS CDK1/CDK2 ([3]; Table S): 31; FS CDK4/CDK2 increased over Comparator D, (+) sign ([4]; Table R): (+); FS CDK4/CDK2 ([4]; Table R): 280; FS CDK4/CDK2 increased over Comparator E, (+) sign ([4]; Table S): (+); FS CDK4/CDK2 ([4]; Table S): 280
